Reference: patent publication US5506359A, “Cocaine analogues and their use as cocaine drug therapies and therapeutic and imaging agents for neurodegenerative disorders” (priority 1993, dated 1996)

Tests used:
[1] = test system: squirrel monkeys trained to discriminate cocaine; test: Drug discrimination (cocaine versus saline); type: in vivo, squirrel monkeys (Saimiri sciureus); details: training dose cocaine 0.3-0.56 mg/kg
Experimental: The subjective (interoceptive) effects of cocaine were studied in monkeys through the use of a drug discrimination procedure. […] Squirrel monkeys were trained to discriminate cocaine (0.3-0.56 mg/kg) from saline using a two-level choice procedure.
(§1) For drug discrimination and self administration studies, experiments are conducted with rodents or squirrel monkeys (Saimiri sciureus) seated in standard primate chairs enclosed in ventilated, sound-attenuating chambers. The chairs are equipped with response levers, stimulus lights, food pellet dispensers, and pumps for injecting drugs intravenously. Four animals are studied in each experiment, with each subject receiving all drug treatments whenever possible. Response rates and temporal patterns of responding are monitored continuously during daily experimental sessions. Effects of drugs are analyzed in individual subjects by comparing performances during drug sessions with those during control sessions. […]
Drug discrimination experiments are conducted using cumulative-dose procedures similar to those described in Madras et al. (Soc. Neurosci. Abst. 16:14, 1990; Pharmacol. Biochem. Behav. 35:949-953, 1990) and Spealman et al. (J. Pharmacol. Exp. Ther. 258:945-953, 1991). […] Good agreement has been found between the effects of drugs determined by cumulative-dose procedures and by single-dose procedures when appropriate parameters are selected. […]

[2] = target: dopamine transporter, human caudate nucleus and putamen (Homo sapiens, UniProt Q01959); test: [^3 H]CFT binding to homogenates of human caudate nucleus and putamen; details: human caudate nucleus and putamen homogenates
Excerpt: In order to determine whether [^3 H]CFT labels sites associated with the dopamine transporter, the binding of [^3 H]CFT to homogenates of human caudate nucleus and putamen, was characterized.

[3] = test system: [^3 H]CFT binding sites in monkey caudate-putamen; details: cited from earlier work
[4] = test system: squirrel monkeys (i.v. drug self-administration); test: Drug self-administration under second order schedule; type: in vivo, squirrel monkeys (Saimiri sciureus)
Excerpt: To determine whether CFT also mimicked cocaine's behavioral effects in vivo (specifically the reinforcing and interoceptive effects), squirrel monkeys were trained to respond under a second order schedule of i.v. drug self-administration (see detailed description below). […] The results were consistent with the view that the reinforcing effects of cocaine are mediated by cocaine recognition sites associated with the dopamine uptake system.
as §1, with “Four animals are studied in each experiment, with each subject receiving all drug treatments whenever possible.” left out
Initially, responding is maintained using an injection dose of 100 μg/kg cocaine, which usually is optimal for developing i.v. self-administration.After consistent rates and patterns of responding are maintained by cocaine, the effects of a full range of doses of cocaine and of selected candidate drugs is determined. […]

Sequence of dopamine transporter, human caudate nucleus and putamen (Q01959 whole entry): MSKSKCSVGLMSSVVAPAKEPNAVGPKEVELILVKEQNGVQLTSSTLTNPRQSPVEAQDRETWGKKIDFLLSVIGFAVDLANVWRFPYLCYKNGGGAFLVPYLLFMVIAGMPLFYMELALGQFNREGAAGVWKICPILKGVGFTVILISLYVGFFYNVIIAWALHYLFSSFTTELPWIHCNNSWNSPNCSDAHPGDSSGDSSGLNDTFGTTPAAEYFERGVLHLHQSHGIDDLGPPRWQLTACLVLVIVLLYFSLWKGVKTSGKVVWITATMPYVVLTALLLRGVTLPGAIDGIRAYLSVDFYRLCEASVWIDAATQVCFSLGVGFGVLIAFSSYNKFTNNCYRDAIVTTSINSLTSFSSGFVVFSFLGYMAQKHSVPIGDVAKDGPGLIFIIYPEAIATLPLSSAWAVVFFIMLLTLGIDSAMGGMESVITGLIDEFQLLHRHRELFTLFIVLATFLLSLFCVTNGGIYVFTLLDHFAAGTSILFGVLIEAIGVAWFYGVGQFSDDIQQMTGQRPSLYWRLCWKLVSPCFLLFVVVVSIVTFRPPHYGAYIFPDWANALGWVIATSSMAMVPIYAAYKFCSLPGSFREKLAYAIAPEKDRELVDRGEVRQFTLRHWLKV

Structure (SMILES): COC(=O)[C@H]1[C@@H](c2ccc(F)cc2)C[C@@H]2CC[C@H]1N2C [4'a (CFT), 2β-carbomethoxy-3β-(4-fluorophenyl)tropane]
- generalization to cocaine cue [1]: fully generalized to the cocaine cue
- rank order of potency for inhibiting [^3 H]CFT binding [2]: Lu 19-005>CFT, mazindol, GBR 12909>(-)-cocaine>bupropion>(+)-cocaine
- extent of displacement of [^3 H]CFT [3]: full displacement of [^3 H]CFT
- number of binding components ([3]; competition curves): at least two binding components
- steepness of competition curve ([3]; displacement of [^3 H]CFT): 0.61-0.89
- potency in maintaining responding relative to cocaine [4]: approximately six
